The results in this text go back to ChEMBL document CHEMBL1130707, “Inhibition stereochemistry of hydroxamate inhibitors for thermolysin” (Bioorg Med Chem Lett, 1998).

pKi: −log10 of the molar value.

The first experiment deals with T1, Thermolysin (Bacillus thermoproteolyticus, UniProt P00800).
T1 sequence (P00800 whole entry): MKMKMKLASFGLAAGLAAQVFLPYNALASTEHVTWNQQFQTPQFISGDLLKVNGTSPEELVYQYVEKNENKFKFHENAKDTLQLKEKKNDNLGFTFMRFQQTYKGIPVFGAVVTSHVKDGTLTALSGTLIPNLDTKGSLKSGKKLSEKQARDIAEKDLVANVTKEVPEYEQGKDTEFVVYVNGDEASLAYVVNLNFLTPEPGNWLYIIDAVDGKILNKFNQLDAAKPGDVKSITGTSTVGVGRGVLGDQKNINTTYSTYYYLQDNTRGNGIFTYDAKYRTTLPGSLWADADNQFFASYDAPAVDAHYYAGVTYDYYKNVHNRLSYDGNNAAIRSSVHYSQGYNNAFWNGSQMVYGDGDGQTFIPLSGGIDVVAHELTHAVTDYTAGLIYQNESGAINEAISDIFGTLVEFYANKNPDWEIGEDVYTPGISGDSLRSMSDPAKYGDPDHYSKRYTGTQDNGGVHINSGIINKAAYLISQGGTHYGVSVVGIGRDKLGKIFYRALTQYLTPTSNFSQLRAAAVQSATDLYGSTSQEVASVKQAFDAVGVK
Put plainly: Inhibitory activity against thermolysin.
`CNC(=O)[C@@H](Cc1ccccc1)CN(O)C(C)=O` had a pKi of 2.40. The compound `CNC(=O)[C@@H](Cc1ccccc1)CN(O)C=O` had a pKi of 5.78. Same read-out and setting: as for `COC(=O)[C@@H](CC(C)C)CN(O)C=O`, the figure is 4.65; as for `CCC(=O)N(O)C[C@H](Cc1ccccc1)C(=O)NC`, 2.12; as for `CNC(=O)[C@H](Cc1ccccc1)CN(O)C=O`, 4.17.

In the case of `COC(=O)[C@@H](CC(C)C)N(O)C=O`, the pKi was 4.36.

The next experiment has as its target T1, Thermolysin. Put plainly: Inhibitory activity against thermolysin; No inhibitory activity was observed up to concentration of 20 mM.
As to `CCC(=O)N(O)C[C@@H](Cc1ccccc1)C(=O)NC`, the Ki entry is “No inhibition”. Still for that read-out and setting: as for `CNC(=O)[C@H](Cc1ccccc1)CN(O)C(C)=O`, the entry is “No inhibition”.

By pKi is commonly meant −log10 of the Ki, conventionally taken in molar units. High values mean a small Ki, low ones a large Ki.
